Measured values: patent US12606536B2, “Bioactive phenolate ionic complexes” (priority 2020, dated 2026)
≈ marks a conversion by molar mass, not a printed value. Counter-ions that a name gives are not always drawn.

Experiments:
[1] = Water solubility of CBD metal complexes; type: physicochemical
Method: CBD metal complexes were tested for water solubility (Table 1).

[2] = Reversibility of CBD salts to CBD on acidification; type: physicochemical; settings: dilute HCl, pH 3; 1H NMR
Method: 1M HCl solution was added dropwise to aqueous solution of CBD-Na until pH of 3 was achieved. […] The ease of reversibility is paramount to the success of this work, as original compounds may be easily reconstituted by a simple chemical process.
For all salts, adding acidic solution such as HCl, convert back the native CBD.

mold = assay: Hay bale packed in coated packaging; settings: after 2 weeks; control bale became moldy
From the text: The copper and zinc-thymol salts were incorporated in polystyrene foam, in a hydrogel during their manufacturing and in coating material of potato seeds and hay packaging material. Moreover, the thymol copper was incorporated in polyethylene sheets during melt extrusion. The salts were incorporated in these formulations while thymol could not be incorporated due to its evaporation rate and low melting point. Thymol was constantly released to air over a period of 3 weeks while protecting the hay from microbial contamination.
In a typical experiment, fresh hay was packed with thymol coated and copper-thymol salt coated packaging. After 2 weeks, the control bale became moldy.

[3] = Regeneration of thymol from thymol-salts in 0.1 N HCl; type: physicochemical; settings: 0.1N HCl solution (pH = 1), 30 min, heptane extraction
Method: Experimental procedure for regeneration studies: Regeneration studies were performed for 2-isopropyl-5-methylphenolate-salts in the 0.1 N HCl solution (1 pH) followed by extracting free thymol with heptane. The appropriate amount of the corresponding thymol-salt (Table 12) was brought into the 20 mL glass vial. To this, 10 mL of 0.1 N was added. The resultant mixture was kept in a shaker for 30 min. After 30 min of acid treatment, 10 mL of heptane was added to the reaction mixture. The collected organic layer was separated from the water layer and carefully dried using rotavapor followed by drying under a temperature-controlled hot oven at 35° C. for 12 h.

[4] = PO 12 mg/kg semaglutide; for T0.5 of semaglutide: n = 3
Method: All compounds are powders and each material ratio is by mass.
Animals are anesthetized for the period of surgery. An indwelling cannula is placed in the right jugular vein of each animal for systemic blood sampling. The cannula is tunnelled beneath the skin and exteriorized at the dorsal part of the neck. After completion of the surgical procedure, the animals are transferred to individual cages to recover overnight (12-18 h). During said recovery period, food, but not water, is deprived if an oral absorption experiment is conducted. Throughout the experiments, free access to food is available 4 h post oral administration.
Animals are randomly assigned to the different experimental groups. […] Systemic blood samples (0.36 ml) are obtained by intravenous cannula, placed in the jugular vein. In the case of oral administration, samples are taken at 5 minutes pre-dose and at different time points post dose, according to the pharmacokinetic profile (blood will be drawn no more than 10% of rat blood volume). To prevent dehydration, equal volumes of physiological solution are administered to the rats following each blood sampling. Plasma is separated by centrifugation (4000 rpm, 7 minutes, 4 °C) and stored at −20° C. pending analysis. Plasma samples were analyzed by a developed LC-MS method for Semaglutide.
PK parameters were extracted from the data in a semi-logarithmic scale. […] It is further important to mention that the formulations were prepared by mass ratios.
AUC0-∞^# was calculated for infinity by using the terminal slope.

[5] = HPLC analysis of regenerated CBD from CBD-Choline (1:1) at pH 1.0; type: physicochemical; settings: HCl solution pH = 1.0, 30 min, chloroform extraction
[6] = NMR
[7] = Pharmacokinetics of CBD after IV administration, freely moving rats; type: in vivo
Method: (§1) And dispersed in water to form a nano dispersion of about 30 nanometer. This dispersion was administered to rats by either IV or orally.
For IV administration: Each molecule was dissolved (2% w/w) in pro-nano lipospheres (PNL) formulation (Table 3). Double-distilled water (DDW) was added to a final CBD concentration of 0.2% w/w in the nano-suspension.
Pharmacokinetics (PK) in rats of Cannabidiol (CBD)-choline (Ch) salt following IV and oral administration: Pharmacokinetic study was performed using the freely moving rats model. For intravenously administration a dosage of 1 mg/kg was given (corrections for the salts are in Tables 4 and 5). Two groups were assigned randomly to be administered with either CBD (n=5) or Ch-CBD (n=4). Systemic blood samples (0.35 mL) were taken at 5-min pre-dose and at 5, 15 30 minutes and 1, 1.5, 2, 4, 6, and 8 hr. post dose.
(§2) The oral formulation was administered to the animals by oral gavage with a dosage of 15 mg/kg (corrections for the salts are in Tables 4 and 5). Two groups were assigned randomly to be administered with either CBD (n=5) or Ch-CBD (n=3). Systemic blood samples (0.35 mL) were taken at 5-min pre-dose and at 0.33, 0.66, 1, 1.5, 2, 4, 6, 8 and 10 hr. post dose. To prevent dehydration, equal volumes of physiological solution were administered following each withdrawal of blood sample. Plasma was separated by centrifugation (4000 rpm, 10 min) and stored at −20° C. pending analysis. Plasma aliquots of 150 μL were spiked with 10 μL of internal standard cannabigerol (CBG; 1 μg/mL). ACN (200 μL) was added to each test tube (tubes A) and vortex-mixed for 1 min. The extraction of CBD and CBG was performed by N-hexane (3 mL) that was added to each test tube (tubes A), followed by 1 min. vortex-mixing. After centrifugation at 4000 rpm for 10 min, the n-hexane organic layer was transferred to fresh glass test tubes (tubes B) and evaporated to dryness (Vacuum Evaporation System, Labconco, Kansas City, MO). Then, tubes B were reconstituted in 80 μL of ACN: water (80:20). The resulting solution (80 μl) was injected into the HPLC-MS system. Column used: XTerra MS C18 Column 3.5 μm 2.1×100 mm column (Waters®, Milford, MA). Mobile phase: an isocratic mobile phase of 20:80 (v/v) 2 mM ammonium acetate/acetonitrile. Diluent: 20:80 (v/v) water/acetonitrile. Flow rate: 0.2 mL/min. Column temperature: 35° C.±5° C. Sample Temperature: 20° C.±5° C. The detection masses (m/z): CBG—312.2 and CBD-313.2, with negative electrospray.
(§3) The amounts found in the plasma for the salts were adjusted with the 0.17 correction factor mentioned in Table 6, to resemble dosage of 1 mg/kg for IV administration and 15 mg/kg for oral administration.

[8] = octanol/water
[9] = Pharmacokinetics of CBD after oral administration, freely moving rats; type: in vivo
Method: as §1
For oral administration: Each molecule was dissolved (5% w/w) in pro-nano lipospheres (PNL) formulation (Table 2). Double-distilled water (DDW) was added to a final CBD concentration of 0.5% w/w in the nano-suspension.
as §2, §3

[10] = Oxidation stability (air bubbled through and sun light, HPLC); type: physicochemical; settings: exposed to air bubbled through and sun light for 24 hours
Method: A solution of CBD in ethanol was exposed to air bubbled through and sun light. […] When the CBD metal complexes were exposed to air bubbled through oxidation and sun light for 24 hours, no change in CBD content is found, as determined by HPLC.

various viruses = settings: plants in polystyrene trays containing the salt; blank trays heavily infected
From the text: These trays were used for planting tomato plants contaminated with various viruses.

C=C(C)C1CCC(C)=CC1c1c([O-])cc(CCCCC)cc1[O-].[Na+].[Na+] (stereo not shown) [CBD-Na]
Solubility in water [1]: 10000 µg/mL | Conversion back to CBD on acidification [2]: confirmed by ^1H NMR to be CBD

Cc1ccc(C(C)C)c(O)c1 [Thymol salt Copper (II), copper(II) 2-isopropyl-5-methylphenolate]
Mold on hay bale (mold): has not shown any mold | % of thymol regenerated ([3]; listed as Copper (II)): 72%

C[N+](C)(C)CCO.O=C([O-])CCCCCCCNC(=O)c1ccccc1[O-].[Na+] [SNAC-CH]
T0.5 of semaglutide [4]: 2.62 ± 0.35 h

Cc1ccc(C(C)C)c(O)c1 [Thymol salt Silver, silver 2-isopropyl-5-methylphenolate]
% of thymol regenerated ([3]; listed as Silver): 57%

CCCC[N+](CCCC)(CCCC)CCCC [Thymol salt Tetrabutylammonium, tetrabutylammonium 2-isopropyl-5-methylphenolate]
% of thymol regenerated [3]: 94%

Cc1ccc(C(C)C)c([O-])c1.[K+] [Thymol salt Potassium, potassium 2-isopropyl-5-methylphenolate]
% of thymol regenerated [3]: 57%

O=C([O-])CCCCCCCNC(=O)c1ccccc1O.[Na+] [SNAC-Na]
Semaglutide absorption compared with the SNAC formulation [4]: didn't contribute to the semaglutide absorption

2Na(2-isopropyl-5-methylphenolate)4Zn [Thymol salt 2Na4Zn]
% of thymol regenerated [3]: 74%

Cc1ccc(C(C)C)c(O)c1 [Thymol salt Zinc (II), zinc(II) 2-isopropyl-5-methylphenolate]
% of thymol regenerated ([3]; listed as Zinc (II)): 59%

C=C(C)C1CCC(C)=CC1c1c(O)cc(CCCCC)cc1O (stereo not shown) [CBD-Choline (1:1) salt]
CBD regenerat. (%) [5]: 67.01% | CBD regenerat. (%) ([5]; listed as CBD-Choline (1:1)): about 67.0%

Cc1ccc(C(C)C)c([O-])c1.[Na+] [Thymol salt Sodium, sodium 2-isopropyl-5-methylphenolate]
% of thymol regenerated [3]: 68%

O=C([O-])CCCCCCCNC(=O)c1ccccc1O.[Na+] [SNAC, Salcaprozate Sodium]
Behaviour on reducing the pH to acidic pH (1.2) [6]: precipitated

O=C([O-])CCCCCCCNC(=O)c1ccccc1[O-].[Na+].[Na+] [SNAC-Na]
T0.5 of semaglutide [4]: 2.26 ± 1.07 h

manganese (II) 2-isopropyl-5-methylphenolate [Thymol salt Manganese(II)]
% of thymol regenerated [3]: 77%

C=C(C)C1CCC(C)=CC1c1c([O-])cc(CCCCC)cc1[O-].C[N+](C)(C)CCO.C[N+](C)(C)CCO (stereo not shown) [CBD-Choline]
T0.5 ([7]; IV, MS correction (0.17), PNL, n = 4): 0.98 h | T0.5 ([7]; IV, MW adjustment (0.6), PNL, n = 4): 1.07 h | Blood levels after IV compared with CBD ([7]; rats, IV): comparable | Log P [8]: 1.71 | T0.5 ([9]; PO, MS correction (0.17), n = 3): 1.37 ± 0.47 h | T0.5 ([9]; PO, MW adjustment (0.6), n = 3): 1.37 ± 0.47 h | Conversion back to CBD on acidification [2]: successfully regenerated

Cc1ccc(C(C)C)c(O)c1 [Thymol salt Ferrous (II), ferrous (II) 2-isopropyl-5-methylphenolate]
% of thymol regenerated [3]: 97%

C=C(C)[C@@H]1CCC(C)=C[C@H]1c1c(O)cc(CCCCC)cc1O [CBD, cannabidiol]
T0.5 ([7]; IV 1 mg/kg in PNL, n = 5): 1.45 h | clearance ([7]; rat, plasma, IV 1 mg/kg in PNL, n = 5): 56.3 mL/min/kg | Vd ([7]; rat, plasma, IV 1 mg/kg in PNL, n = 5, read-out: Volume of distribution): 7.02 L/kg | AUC(0-inf) ([7]; rat, CBD in plasma, IV 1 mg/kg in PNL formulation suspended (X10) in water, until 8 hours, n = 5): 300 ng·h/mL | Change in CBD content [10]: decrease in CBD content | T0.5 ([9]; PO 15 mg/kg in PNL, n = 5): 1.05 ± 0.46 h | AUC(0-inf) ([9]; rat, plasma, PO 15 mg/kg in PNL, calculated for infinity by the terminal slope, n = 5): 846 ± 321 ng·h/mL | bioavailability ([9]; rat, plasma, PO 15 mg/kg in PNL, calculated using data of CBD in PNL by IV administration, read-out: Fabs (%) (Absolute bioavailability)): 18.8 ± 7.1% | Cmax ([9]; rat, plasma, PO 15 mg/kg in PNL, n = 5): 200 ± 79.5 ng/mL | AUC(0-t) ([9]; rat, CBD in plasma, PO 15 mg/kg in PNL formulation suspended (X10) in water, until 10 hours, n = 5, read-out: AUC0-10): 841 ± 319 ng·h/mL | solubility ([1]; water): 12.6 µg/mL (≈ 40.1 µM) | CBD regenerat. (%) [5]: 100.00%

C=C(C)C1CCC(C)=CC1c1c([O-])cc(CCCCC)cc1[O-].[K+].[K+] (stereo not shown) [CBD-K]
Solubility in water [1]: 2000 µg/mL

O=C([O-])c1ccccc1.O=C([O-])c1ccccc1.[Cu+2] [copper benzoate]
Infection of tomato plants (various viruses): did not demonstrate any infection

Cc1ccc(C(C)C)c([O-])c1.[Li+] [Thymol salt Lithium, lithium 2-isopropyl-5-methylphenolate]
% of thymol regenerated [3]: 63%
